How the values were obtained:
Assay type in all cases: in vivo, Male Wistar rats
ketone body production [1] = test: Selection of amino acid promoting ketone body production: blood β-hydroxybutyric acid after amino acid plus MCT feeding; conditions: rats, until 6 hours; for % ΔAUC (%): % relative value of area under the blood concentration-curve ΔAUC of β-hydroxybutyric acid, control group = 100 / % ΔCmax (%): % relative value of maximum blood concentration ΔCmax of β-hydroxybutyric acid, control group = 100: overnight fasting, amino acid 1.0 mmol/kg oral, then caprylic triglyceride (MCT) 3.0 g/kg oral, control water + MCT; for both % ΔCmax and % ΔAUC of β-hydroxybutyric acid compared with control group fed with water: amino acid 1.0 mmol/kg oral + MCT 3.0 g/kg oral
Description: (§1) In the following Examples, the blood β-hydroxybutyric acid concentration was measured with a β-hydroxybutyric acid measuring instrument for self-inspection (Precision Xceed manufactured by Abbott).
In the following Examples, the promotion of ketone body production was evaluated as follows. Specifically, blood was collected from the caudal vein of rats under fasting to measure the blood concentration (mmol/L) of β-hydroxybutyric acid (bHB) as an index of the ketone body in the blood. The measured value was defined as an initial value (0 hours). The rats were grouped into a control group and an experimental group, and fed with test samples. Thereafter, the transition of the blood bHB concentration until after 6 hours from the initial value was graphed. A reference view for determining the maximum blood concentration (Cmax) and area under the blood concentration-curve (AUC) of bHB is shown in FIG. 1A. A value obtained by subtracting the measured value at the initial value (0 hours) from the measured value at the time of each measurement was calculated, and defined as an amount of change in blood β-hydroxybutyric acid concentration (ΔbHB concentration) (FIG. 1B). Then, for the amount of change in blood β-hydroxybutyric acid concentration (ΔbHB concentration), the maximum blood concentration (ΔCmax) and area under the blood concentration-curve (ΔAUC) until after 6 hours from the initial value (0 hours) were calculated (FIG. 1B).
A % relative value (% ΔCmax (%)) of the maximum blood concentration ΔCmax of β-hydroxybutyric acid for the experimental group when the maximum blood concentration ΔCmax of β-hydroxybutyric acid for the control group was assumed to be 100 was determined according to the following calculation formula.
A % relative value (% ΔAUC (%)) of the area under the blood concentration-curve ΔAUC of blood β-hydroxybutyric acid for the experimental group when the area under the blood concentration-curve ΔAUC of blood β-hydroxybutyric acid for the control group was assumed to be 100 was determined according to the following calculation formula.
Male Wistar rats (obtained from Japan SLC, Inc.) were acclimated for one week and then used for testing. Blood was collected from the caudal vein of the rats under overnight fasting to measure the blood concentration (mmol/L) of β-hydroxybutyric acid (bHB) as an index of the ketone body in the blood. The rats were grouped (n=8 for each group) so that the averages of the body weights and the β-hydroxybutyric acid concentrations for the respective groups were as equal as possible. Then, water was orally fed in an amount of 10 mL/kg of the body weight to the control group, and aqueous solutions of various amino acids (manufactured by Wako Pure Chemical Industries, Ltd.) were orally fed in an amount of 1.0 mmol/kg of the body weight to the experimental group. Immediately after feeding of water or each of the aqueous amino acid solutions, caprylic triglyceride (manufactured by Tokyo Chemical Industry Co., Ltd.), which is medium-chain fatty acid oil and fat (MCT), was orally fed in an amount of 3.0 g/kg of the body weight to the groups. Blood was collected from the caudal vein 1, 2, 3, 4, 5, and 6 hours after feeding of MCT to measure the blood β-hydroxybutyric acid concentration.

ketone body production [2] = test: Effect of citrulline amount on ketone body production in feeding of medium-chain fatty acid oil and fat; conditions: rats, four-hour fasting; citrulline 1.5, 2.25 or 3.0 mmol/kg + MCT 4.5 g/kg oral constant; until 6 hours
Description: as §1
(§2) In the following Examples, the promotion of ketone body production was evaluated as follows. Specifically, blood was collected from the caudal vein of rats under fasting to measure the blood concentration (mmol/L) of β-hydroxybutyric acid (bHB) as an index of the ketone body in the blood. The measured value was defined as an initial value (0 hours). The rats were grouped into a control group and an experimental group, and fed with test samples. Thereafter, the transition of the blood bHB concentration until after 6 hours from the initial value was graphed. […] A value obtained by subtracting the measured value at the initial value (0 hours) from the measured value at the time of each measurement was calculated, and defined as an amount of change in blood β-hydroxybutyric acid concentration (ΔbHB concentration) (FIG. 1B). Then, for the amount of change in blood β-hydroxybutyric acid concentration (ΔbHB concentration), the maximum blood concentration (ΔCmax) and area under the blood concentration-curve (ΔAUC) until after 6 hours from the initial value (0 hours) were calculated (FIG. 1B). […]

ketone body production [3] = test: Effect of citrulline or leucine on ketone body production in feeding of medium-chain fatty acid oil and fat; conditions: rats, four-hour fasting; amino acid 1.5 mmol/kg oral + caprylic triglyceride (MCT) 4.5 g/kg oral; until 6 hours
Description: as §1, §2

Structure (SMILES) | % ΔAUC (%): % relative value of area under the blood concentration-curve ΔAUC of β-hydroxybutyric acid, control group = 100 (ketone body production [1]) [%] | % ΔCmax (%): % relative value of maximum blood concentration ΔCmax of β-hydroxybutyric acid, control group = 100 (ketone body production [1]) [%] | both % ΔCmax and % ΔAUC of β-hydroxybutyric acid compared with control group fed with water (ketone body production [1]) | amount of ketone bodies produced as a function of citrulline intake amount (% ΔAUC, % ΔCmax, FIGS. 8 and 9) (ketone body production [2]) | ketone body production compared with MCT fed alone (ΔbHB, ΔAUC, ΔCmax, FIGS. 2 to 7) (ketone body production [3])
N[C@@H](CC(=O)O)C(=O)O [Aspartic acids (Asp), aspartic acid] | 107.5 ± 30.7 | 108.8 ± 23.6 | higher than those for the control group |  | 
NC(=O)NCCC[C@H](N)C(=O)O [Citrulline (Cit), citrulline] | 105.4 ± 37.2 | 112.8 ± 25.5 | higher than those for the control group | the amount of the ketone bodies produced varied according to the intake amount of citrulline (Cit) | the ketone body production was promoted
N[C@@H](CS)C(=O)O [Cysteine (Cys), cysteine] | 128.3 ± 22.2 | 151.9 ± 23.8 | higher than those for the control group |  | 
NC(=O)CC[C@H](N)C(=O)O [Glutamine (Gln), glutamine] | 103.6 ± 30.7 | 121.2 ± 44.6 | higher than those for the control group |  | 
CC(C)C[C@H](N)C(=O)O [Leucine (Leu), leucine] | 110.5 ± 21.1 | 130.1 ± 31.8 | higher than those for the control group |  | the ketone body production was promoted
NCCS(=O)(=O)O [Taurine (Tau), taurine] | 103.6 ± 23.0 | 137.8 ± 21.8 | higher than those for the control group |  | 

Source: US12156857B2, “Composition for promoting ketone body production” (Meiji Co., Ltd., priority 2016, dated 2024)
